We go through nine compounds from ChEMBL document CHEMBL1152731, “Design, synthesis, and anti-HIV activity of 4'-modified carbocyclic nucleoside phosphonate reverse transcriptase inhibitors” (Bioorg Med Chem, 2009).

In series [1] the test system is Human immunodeficiency virus 1. The experiment in a line: Antiviral activity against HIV1 3a infected human MT2 cells assessed as inhibition of viral-induced cytopathic effect after 3 days by XTT assay. Conditions: Human immunodeficiency virus 1, 3a, MT2, 72 h. In kind it is functional, organism-based.
In series [2] the target is Human immunodeficiency virus type 1 reverse transcriptase (Human immunodeficiency virus 1, UniProt Q72547). The experiment in a line: Inhibition on HIV1 reverse transcriptase p66/p51.
For series [3], the system named is Human immunodeficiency virus 1. The experiment in a line: Antiviral activity against HIV1 3a with reverse transcriptase M184V mutation in human MT2 cells assessed as inhibition of viral-induced cytopathic effect by XTT assay relative to wild type. It is filed as functional.
Series [4] concerns Human immunodeficiency virus 1. The experiment in a line: Antiviral activity against HIV1 3a with reverse transcriptase K65R mutation in human MT2 cells assessed as inhibition of viral-induced cytopathic effect by XTT assay relative to wild type. In kind it is functional.
Series [5] is described as follows: Cytotoxicity against human MT2 cells after 5 days. In kind it is cell-based.

Some results are limits rather than exact numbers.

Regarding `C[C@@]1(OCP(=O)(O)O)C=C[C@H](n2cnc3c(N)ncnc32)C1`, the half-maximal effective concentration (EC50) in series [1] amounted to 244 µM.
For the compound `Nc1nc(NC2CC2)c2ncn([C@H]3C=C[C@@H](CO)C3)c2n1` [ABACAVIR], the EC50 in series [1] is 0.32 µM. Moreover, in series [2], 130 nM corresponded to half-maximal inhibition (IC50). For the same compound, the “fold change (FC)” value in series [3] was 7.1; in series [4], 3.8.
In turn, `C=C[C@@]1(OCP(=O)(O)OP(=O)(O)OP(=O)(O)O)C=C[C@H](n2cnc3c(N)ncnc32)C1` yielded a 50% inhibitory concentration (IC50) in series [2] of 620 nM.
`Nc1ncnc2c1ncn2[C@H]1C=C[C@@H](OCP(=O)(O)O)O1` showed a cytotoxic concentration (CC50) at 120 h in series [5] of more than 1 mM. Besides, the “fold change (FC)” value in series [3] and in series [4] was 2.9 in each case.
In turn, `Nc1ncnc2c1ncn2[C@@H]1O[C@H](OCP(=O)(O)O)C=C1F` [GS-9148] had a CC50 at 120 h in series [5] of more than 1 mM. Moreover, the “fold change (FC)” value in series [3] is listed as 0.8; in series [4], 1.1.
As for `Nc1ncnc2c1ncn2[C@H]1C=C[C@@H](OCP(=O)(O)O)C1`, the EC50 in series [1] was found to be 52 µM.
`Cc1cn([C@H]2C[C@H](N=[N+]=[N-])[C@@H](CO)O2)c(=O)[nH]c1=O` [ZIDOVUDINE] registered a CC50 at 120 h in series [5] of more than 0.2 mM. Moreover, the results for the “fold change (FC)” value in series [3] and in series [4] were 0.7 and 1.2, respectively.
Regarding `C[C@H](Cn1cnc2c(N)ncnc21)OCP(=O)(O)O` [TENOFOVIR ANHYDROUS], the cytotoxic concentration (CC50) at 120 h in series [5] was more than 1 mM. The “fold change (FC)” value stood at 0.7 in series [3] and 4.3 in series [4].
As to `C#C[C@@]1(OCP(=O)(O)O)C=C[C@H](n2cnc3c(N)ncnc32)C1`, the EC50 in series [1] worked out at 16 µM. Also, in series [2], the half-inhibitory concentration (IC50) was determined as 130 nM. The compound also came in with a CC50 at 120 h in series [5] of 1.45 mM. The results for the “fold change (FC)” value in series [3] and in series [4] were more than 30 and 2.2, respectively.
